The values that follow come from US20090299044A1 (priority 2006, published 2009).

Bridge positions count the residues as written; N and C are the ends. Square brackets hold non-standard residues; d marks the D form. Peptide text beside a SMILES is read from it. 1Nal = N[C@@H](Cc1cccc2ccccc12)C(=O)O

Usually IC50 stands for the concentration that inhibits the measured activity by half. Read a high IC50 as lower potency.

In assay [1] the target is T1, human Kv1.3 (CHO) (Homo sapiens, UniProt P22001).
T1 construct: expressed in transfected cells; host or cells: CHO
T1 sequence (P22001 whole entry): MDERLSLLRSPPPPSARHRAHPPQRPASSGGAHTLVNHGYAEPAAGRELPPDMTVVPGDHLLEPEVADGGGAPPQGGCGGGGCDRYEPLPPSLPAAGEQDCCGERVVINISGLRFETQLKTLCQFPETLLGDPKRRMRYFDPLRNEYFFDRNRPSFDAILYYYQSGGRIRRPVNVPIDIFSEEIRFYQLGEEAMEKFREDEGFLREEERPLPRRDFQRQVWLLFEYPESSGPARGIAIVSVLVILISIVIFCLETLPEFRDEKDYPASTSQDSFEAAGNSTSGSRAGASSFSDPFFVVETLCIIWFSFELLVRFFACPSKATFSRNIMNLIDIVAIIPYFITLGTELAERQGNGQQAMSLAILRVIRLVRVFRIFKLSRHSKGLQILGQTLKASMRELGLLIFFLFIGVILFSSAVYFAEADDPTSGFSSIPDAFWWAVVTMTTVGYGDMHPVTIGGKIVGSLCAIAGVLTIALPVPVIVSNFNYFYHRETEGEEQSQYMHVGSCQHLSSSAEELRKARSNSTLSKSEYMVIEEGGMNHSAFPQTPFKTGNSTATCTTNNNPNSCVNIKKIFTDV
Put plainly: cell-based.

Assay [2] addresses T2, human Kv1.1 (HEK293) (Homo sapiens, UniProt Q09470).
T2 construct: expressed in transfected cells; host or cells: HEK293
Kind of assay: cell-based.

T2 sequence (Q09470 whole entry): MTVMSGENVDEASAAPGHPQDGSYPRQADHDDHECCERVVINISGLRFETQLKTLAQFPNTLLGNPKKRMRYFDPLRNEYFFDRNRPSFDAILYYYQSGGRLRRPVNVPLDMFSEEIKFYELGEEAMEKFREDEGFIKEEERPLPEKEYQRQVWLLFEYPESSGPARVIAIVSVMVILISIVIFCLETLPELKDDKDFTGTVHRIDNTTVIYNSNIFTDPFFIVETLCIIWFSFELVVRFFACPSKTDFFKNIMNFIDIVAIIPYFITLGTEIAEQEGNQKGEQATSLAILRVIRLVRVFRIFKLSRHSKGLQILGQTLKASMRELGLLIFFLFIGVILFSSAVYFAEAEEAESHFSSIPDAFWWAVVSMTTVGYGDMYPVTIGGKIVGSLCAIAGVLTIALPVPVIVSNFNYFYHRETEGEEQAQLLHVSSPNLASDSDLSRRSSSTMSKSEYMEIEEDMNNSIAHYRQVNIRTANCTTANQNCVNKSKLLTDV

In the case of `CC[C@H](C)[C@@H]1NC(=O)[C@H](CCCCN)NC(=O)[C@@H](NC(=O)[C@H](CCCCN)NC(=O)[C@@H](NC(=O)[C@H](CC(N)=O)NC(=O)[C@@H](NC(=O)[C@@H](NC(=O)[C@@H](NC(=O)CN)C(C)C)[C@@H](C)CC)[C@@H](C)CC)C(C)C)CSSC[C@@H]2NC(=O)[C@H](CCCCN)NC(=O)CNC(=O)[C@H](Cc3ccccc3)NC(=O)[C@H](CCCNC(=N)N)NC(=O)[C@H](CCSC)NC(=O)CNC(=O)[C@H](C)NC(=O)[C@H](CCCCN)NC(=O)[C@H](CCCCN)NC(=O)[C@@H]3CSSC[C@@H](C(=O)N[C@H](C(=O)N4CCC[C@H]4C(=O)N[C@@H](CCCCN)C(=O)O)[C@@H](C)O)NC(=O)[C@H](Cc4c[nH]cn4)NC(=O)[C@H](CSSC[C@H](NC(=O)[C@H](C)NC(=O)[C@H](CCCNC(=N)N)NC(=O)[C@H](CO)NC1=O)C(=O)N[C@@H](CC(C)C)C(=O)N[C@@H](CCC(=O)O)C(=O)N1CCC[C@H]1C(=O)N3)NC(=O)[C@H](CCCCN)NC(=O)CNC(=O)[C@H](CC(N)=O)NC(=O)[C@H](CCSC)NC2=O` [Q13A] (H-GVIINVKCKISRACLEPCKKAGMRFGKCMNGKCHCTPK-OH; disulfide 8-28, 14-33, 18-35), the values for the IC50 in assay [1] and in assay [2] were 0.249 nM and 0.0217 nM, respectively.

Take `CC[C@H](C)[C@@H]1NC(=O)[C@H](CCCCN)NC(=O)[C@@H](NC(=O)[C@H](CCCCN)NC(=O)[C@@H](NC(=O)[C@H](CC(N)=O)NC(=O)[C@@H](NC(=O)[C@@H](NC(=O)[C@@H](NC(=O)CN)C(C)C)[C@@H](C)CC)[C@@H](C)CC)C(C)C)CSSC[C@@H]2NC(=O)[C@H](CCCCN)NC(=O)CNC(=O)[C@H](Cc3ccccc3)NC(=O)[C@H](CCCNC(=N)N)NC(=O)[C@H](CCSC)NC(=O)CNC(=O)[C@H](C)NC(=O)[C@H](CCCCN)NC(=O)[C@H](CCCCN)NC(=O)[C@@H]3CSSC[C@@H](C(=O)N[C@H](C(=O)N4CCC[C@H]4C(=O)N[C@@H](CCCCN)C(=O)O)[C@@H](C)O)NC(=O)[C@H](Cc4c[nH]cn4)NC(=O)[C@H](CSSC[C@H](NC(=O)[C@H](CCC(=O)O)NC(=O)[C@H](CCCNC(=N)N)NC(=O)[C@H](CO)NC1=O)C(=O)N[C@@H](CC(C)C)C(=O)N[C@@H](CCC(=O)O)C(=O)N1CCC[C@H]1C(=O)N3)NC(=O)[C@H](CCCCN)NC(=O)CNC(=O)[C@H](CC(N)=O)NC(=O)[C@H](CCSC)NC2=O` [Q13E] (H-GVIINVKCKISRECLEPCKKAGMRFGKCMNGKCHCTPK-OH; disulfide 8-28, 14-33, 18-35): the IC50 in assay [1] was found to be 0.0459 nM; in assay [2] it was 0.00628 nM.

With `CC[C@H](C)[C@@H]1NC(=O)[C@H](CCCCN)NC(=O)[C@@H](NC(=O)[C@H](CCCCN)NC(=O)[C@@H](NC(=O)[C@H](CC(N)=O)NC(=O)[C@@H](NC(=O)[C@@H](NC(=O)[C@@H](NC(=O)CN)C(C)C)[C@@H](C)CC)[C@@H](C)CC)C(C)C)CSSC[C@@H]2NC(=O)[C@H](CCCCN)NC(=O)CNC(=O)[C@H](Cc3ccccc3)NC(=O)[C@H](CCCNC(=N)N)NC(=O)[C@H](CCSC)NC(=O)CNC(=O)[C@H](C)NC(=O)[C@H](CCCCN)NC(=O)[C@H](CCCCN)NC(=O)[C@@H]3CSSC[C@@H](C(=O)N[C@H](C(=O)N4CCC[C@H]4C(=O)N[C@@H](CCCCN)C(=O)O)[C@@H](C)O)NC(=O)[C@H](Cc4c[nH]cn4)NC(=O)[C@H](CSSC[C@H](NC(=O)[C@H](CCCNC(=N)N)NC(=O)[C@H](CCCNC(=N)N)NC(=O)[C@H](CO)NC1=O)C(=O)N[C@@H](CC(C)C)C(=O)N[C@@H](CCC(=O)O)C(=O)N1CCC[C@H]1C(=O)N3)NC(=O)[C@H](CCCCN)NC(=O)CNC(=O)[C@H](CC(N)=O)NC(=O)[C@H](CCSC)NC2=O` [Q13R] (H-GVIINVKCKISRRCLEPCKKAGMRFGKCMNGKCHCTPK-OH; disulfide 8-28, 14-33, 18-35), the concentration for half-maximal inhibition (IC50) in assay [1] was 0.0153 nM; in assay [2], less than 0.00152 nM.

`CC[C@H](C)[C@@H]1NC(=O)[C@H](CCCCN)NC(=O)[C@@H](NC(=O)[C@H](CCCCN)NC(=O)[C@@H](NC(=O)[C@H](CC(N)=O)NC(=O)[C@@H](NC(=O)[C@@H](NC(=O)[C@@H](NC(=O)CN)C(C)C)[C@@H](C)CC)[C@@H](C)CC)C(C)C)CSSC[C@@H]2NC(=O)[C@H](CCCCN)NC(=O)CNC(=O)[C@H](Cc3ccccc3)NC(=O)[C@H](CCCNC(=N)N)NC(=O)[C@H](CCSC)NC(=O)CNC(=O)[C@H](C)NC(=O)[C@H](CCCCN)NC(=O)[C@H](CCCCN)NC(=O)[C@@H]3CSSC[C@@H](C(=O)N[C@H](C(=O)N4CCC[C@H]4C(=O)N[C@@H](CCCCN)C(=O)O)[C@@H](C)O)NC(=O)[C@H](Cc4c[nH]cn4)NC(=O)[C@H](CSSC[C@H](NC(=O)[C@H](CCC(N)=O)NC(=O)[C@H](CCC(=O)O)NC(=O)[C@H](CO)NC1=O)C(=O)N[C@@H](CC(C)C)C(=O)N[C@@H](CCC(=O)O)C(=O)N1CCC[C@H]1C(=O)N3)NC(=O)[C@H](CCCCN)NC(=O)CNC(=O)[C@H](CC(N)=O)NC(=O)[C@H](CCSC)NC2=O` [R12E] (H-GVIINVKCKISEQCLEPCKKAGMRFGKCMNGKCHCTPK-OH; disulfide 8-28, 14-33, 18-35): the IC50 in assay [1] was 0.0897 nM; in assay [2], 0.193 nM.

With `CC[C@H](C)[C@@H]1NC(=O)[C@H](CCCCN)NC(=O)[C@@H](NC(=O)[C@H](CCCCN)NC(=O)[C@@H](NC(=O)[C@H](CC(N)=O)NC(=O)[C@@H](NC(=O)[C@@H](NC(=O)[C@@H](NC(=O)CN)C(C)C)[C@@H](C)CC)[C@@H](C)CC)C(C)C)CSSC[C@@H]2NC(=O)[C@H](CCCCN)NC(=O)CNC(=O)[C@H](Cc3ccccc3)NC(=O)[C@H](C)NC(=O)[C@H](CCSC)NC(=O)CNC(=O)[C@H](C)NC(=O)[C@H](CCCCN)NC(=O)[C@H](CCCCN)NC(=O)[C@@H]3CSSC[C@@H](C(=O)N[C@H](C(=O)N4CCC[C@H]4C(=O)N[C@@H](CCCCN)C(=O)O)[C@@H](C)O)NC(=O)[C@H](Cc4c[nH]cn4)NC(=O)[C@H](CSSC[C@H](NC(=O)[C@H](CCC(N)=O)NC(=O)[C@H](CCCNC(=N)N)NC(=O)[C@H](CO)NC1=O)C(=O)N[C@@H](CC(C)C)C(=O)N[C@@H](CCC(=O)O)C(=O)N1CCC[C@H]1C(=O)N3)NC(=O)[C@H](CCCCN)NC(=O)CNC(=O)[C@H](CC(N)=O)NC(=O)[C@H](CCSC)NC2=O` [R24A] (H-GVIINVKCKISRQCLEPCKKAGMAFGKCMNGKCHCTPK-OH; disulfide 8-28, 14-33, 18-35), the half-inhibitory concentration (IC50) was greater than 3 nM in assay [1] and 1.89 nM in assay [2].

Turning to `CC[C@H](C)[C@@H]1NC(=O)[C@H](CCCCN)NC(=O)[C@@H](NC(=O)[C@H](CCCCN)NC(=O)[C@@H](NC(=O)[C@H](CC(N)=O)NC(=O)[C@@H](NC(=O)[C@@H](NC(=O)[C@@H](NC(=O)CN)C(C)C)[C@@H](C)CC)[C@@H](C)CC)C(C)C)CSSC[C@@H]2NC(=O)[C@H](CCCCN)NC(=O)CNC(=O)[C@H](Cc3ccccc3)NC(=O)[C@H](Cc3cccc4ccccc34)NC(=O)[C@H](CCSC)NC(=O)CNC(=O)[C@H](C)NC(=O)[C@H](CCCCN)NC(=O)[C@H](CCCCN)NC(=O)[C@@H]3CSSC[C@@H](C(=O)N[C@H](C(=O)N4CCC[C@H]4C(=O)N[C@@H](CCCCN)C(=O)O)[C@@H](C)O)NC(=O)[C@H](Cc4c[nH]cn4)NC(=O)[C@H](CSSC[C@H](NC(=O)[C@H](CCC(N)=O)NC(=O)[C@H](CCCNC(=N)N)NC(=O)[C@H](CO)NC1=O)C(=O)N[C@@H](CC(C)C)C(=O)N[C@@H](CCC(=O)O)C(=O)N1CCC[C@H]1C(=O)N3)NC(=O)[C@H](CCCCN)NC(=O)CNC(=O)[C@H](CC(N)=O)NC(=O)[C@H](CCSC)NC2=O` [R24Nal] (H-GVIINVKCKISRQCLEPCKKAGM[1Nal]FGKCMNGKCHCTPK-OH; disulfide 8-28, 14-33, 18-35), the IC50 in assay [1] worked out at 0.0453 nM; in assay [2] it was 0.00285 nM.

Take `CC[C@H](C)[C@@H]1NC(=O)[C@H](CCCCN)NC(=O)[C@@H](NC(=O)[C@H](CCCCN)NC(=O)[C@@H](NC(=O)[C@H](CC(N)=O)NC(=O)[C@@H](NC(=O)[C@@H](NC(=O)[C@@H](NC(=O)CN)C(C)C)[C@@H](C)CC)[C@@H](C)CC)C(C)C)CSSC[C@@H]2NC(=O)[C@H](CCCCN)NC(=O)CNC(=O)[C@H](Cc3ccccc3)NC(=O)[C@H](CCCNC(=N)N)NC(=O)[C@H](CCSC)NC(=O)CNC(=O)[C@H](C)NC(=O)[C@H](CCCCN)NC(=O)[C@H](CCCCN)NC(=O)[C@@H]3CSSC[C@@H](C(=O)N[C@H](C(=O)N4CCC[C@H]4C(=O)N[C@@H](CCCCN)C(=O)O)[C@@H](C)O)NC(=O)[C@H](Cc4c[nH]cn4)NC(=O)[C@H](CSSC[C@H](NC(=O)[C@H](CCC(N)=O)NC(=O)[C@H](CCCNC(=N)N)NC(=O)[C@H](C)NC1=O)C(=O)N[C@@H](CC(C)C)C(=O)N[C@@H](CCC(=O)O)C(=O)N1CCC[C@H]1C(=O)N3)NC(=O)[C@H](CCCCN)NC(=O)CNC(=O)[C@H](CC(N)=O)NC(=O)[C@H](CCSC)NC2=O` [S11A] (H-GVIINVKCKIARQCLEPCKKAGMRFGKCMNGKCHCTPK-OH; disulfide 8-28, 14-33, 18-35): the IC50 in assay [1] was found to be 0.0408 nM; in assay [2], 0.113 nM.

For `CC[C@H](C)[C@@H]1NC(=O)[C@H](CCCCN)NC(=O)[C@@H](NC(=O)[C@H](CCCCN)NC(=O)[C@@H](NC(=O)[C@H](CC(N)=O)NC(=O)[C@@H](NC(=O)[C@@H](NC(=O)[C@@H](NC(=O)CN)C(C)C)[C@@H](C)CC)[C@@H](C)CC)C(C)C)CSSC[C@@H]2NC(=O)[C@H](CCCCN)NC(=O)CNC(=O)[C@H](Cc3ccccc3)NC(=O)[C@H](CCCNC(=N)N)NC(=O)[C@H](CCSC)NC(=O)CNC(=O)[C@H](C)NC(=O)[C@H](CCCCN)NC(=O)[C@H](CCCCN)NC(=O)[C@@H]3CSSC[C@@H](C(=O)N[C@@H](CCCNC(=N)N)C(=O)N4CCC[C@H]4C(=O)N[C@@H](CCCCN)C(=O)O)NC(=O)[C@H](Cc4c[nH]cn4)NC(=O)[C@H](CSSC[C@H](NC(=O)[C@H](CCC(N)=O)NC(=O)[C@H](CCCNC(=N)N)NC(=O)[C@H](CO)NC1=O)C(=O)N[C@@H](CC(C)C)C(=O)N[C@@H](CCC(=O)O)C(=O)N1CCC[C@H]1C(=O)N3)NC(=O)[C@H](CCCCN)NC(=O)CNC(=O)[C@H](CC(N)=O)NC(=O)[C@H](CCSC)NC2=O` [T36R] (H-GVIINVKCKISRQCLEPCKKAGMRFGKCMNGKCHCRPK-OH; disulfide 8-28, 14-33, 18-35), the values for the IC50 in assay [1] and in assay [2] were 1.31 nM and 0.0266 nM, respectively.
